The term IC50 denotes the concentration that gives 50% inhibition.

Consider two compounds from patent publication US12459916B2, “Substituted indazoles useful for treatment and prevention of allergic and/or inflammatory diseases in animals” (Bayer Pharma Aktiengesellschaft, priority 2016, dated 2025).

Where two headings read alike, the source gives them in different places.

For assay [1], the system named is secretion of TNF-α in THP-1 cells. The assay can be described thus: TNF-α secretion in THP-1 cells. The format is cell-based. The conditions noted are these: Homo sapiens, LPS 0.05 μg/ml, 17 h, read-out: IC50 with respect to the secretion of TNF-α in THP-1 cells. On the procedure: This test is suited to test substances for their ability to inhibit secretion of TNF-α (tumour necrosis factor alpha) in THP-1 cells (human monocytic acute leukaemia cell line). TNF-α is a cytokine involved in inflammatory processes. In this test, TNF-α secretion is triggered by incubation with bacterial lipopolysaccharide (LPS).
The cells were incubated at room temperature for 15 min. 2-2.5 μl of 0.1 μg/ml LPS (Sigma, Escherichia coli 055:B5, Cat. No. L5418) dissolved in cell culture medium (final concentration 0.05 μg/ml) were then dispensed into each well. As neutral control, cells were treated with 0.05 μg/ml LPS and 1% DMSO and, as inhibitor control, with 1% DMSO only.
The amount of TNF-α was determined using the TNF-alpha HTRF Detection Kit (Cisbio, Cat. No. 62TNFPEB/C). To this end, 2 μl of the detection solution in each case, consisting of anti-TNF-α-XL665 conjugate and anti-TNF-α-cryptate conjugate dissolved in the reconstitution buffer in accordance with the manufacturer's instructions, were added for the HTRF (Homogeneous Time-Resolved Fluorescence) test. After the addition, the mixture was incubated either at room temperature for 3 h or at 4° C. overnight.
The activity of the substances is expressed as the ratio between neutral and inhibitor control in percent. The IC50 values were calculated using a 4-parameter fit.

In the next assay the target is canine IRAK4 (Canis lupus familiaris, UniProt A0A8I3S726). Put plainly: Canine IRAK4 kinase assay (TR-FRET). It counts as biochemical. On the procedure: The IRAK4-inhibitory activity of the present compounds on canine IRAK4 was measured in the Irak4 TR-FRET assay (TR-FRET=Time Resolved Fluorescence Resonance Energy Transfer) described hereinafter.
Chain of canine IRAK4 (A0A8I3S726 1-460): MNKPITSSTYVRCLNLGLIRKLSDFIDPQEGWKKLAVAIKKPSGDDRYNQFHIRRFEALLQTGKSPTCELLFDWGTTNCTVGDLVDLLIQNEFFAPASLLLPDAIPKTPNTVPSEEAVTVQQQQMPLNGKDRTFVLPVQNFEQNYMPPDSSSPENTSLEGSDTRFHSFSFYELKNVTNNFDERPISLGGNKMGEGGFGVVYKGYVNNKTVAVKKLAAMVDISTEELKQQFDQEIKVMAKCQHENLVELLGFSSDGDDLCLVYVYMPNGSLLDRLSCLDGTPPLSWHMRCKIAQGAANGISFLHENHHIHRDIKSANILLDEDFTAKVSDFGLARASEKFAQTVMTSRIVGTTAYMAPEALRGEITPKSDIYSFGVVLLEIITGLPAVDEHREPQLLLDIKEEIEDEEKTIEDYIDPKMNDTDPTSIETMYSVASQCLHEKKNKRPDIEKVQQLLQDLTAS
Recombinant fusion protein from N-terminal HIS (Poly-histidine) and canine Irak4, expressed in baculovirus-infected insect cells (Hi5, BTI-TN-5B1-4, cell line purchased from Invitrogen, catalogue No. B855-02) and purified via affinity chromatography, was used as enzyme. The substrate used for the kinase reaction was the biotinylated peptide biotin-Ahx-[…]
50 nl of the respective solution were pipetted into a black low-volume 384-well microtitre plate (Greiner Bio-One, Frickenhausen, Germany), 2 μl of a solution of Irak4 in assay buffer [50 mM HEPES pH 7.5, 5 mM MgCl2, 1.0 mM dithiothreitol, 30 μM activated sodium orthovanadate, 0.1% (w/v) of bovine gamma-globulin (BGG) 0.04% (v/v) nonidet-P40 (Sigma)] were added and the mixture was incubated for 15 min to allow prebinding of the substances to the enzyme prior to the kinase reaction. […] The concentration of the Irak4 was adjusted to the respective activity of the enzyme and set such that the assay was carried out in the linear range. Typical concentrations were in the order of about 0.1 nM.
The resulting mixture was incubated at 22° C. for 1 h to allow formation of a complex of the biotinylated phosphorylated substrate and the detection reagents. The amount of the phosphorylated substrate was then evaluated by measuring the resonance energy transfer from europium chelate-labelled anti-mouse-IgG antibody to streptavidin-XL665. […] The IC50 values were calculated by a 4-parameter fit.
A general note: In TR-FRET formats the signal depends on donor and acceptor labels being close together.

Setting [2] is: IC50 in the IRAK4 canine kinase assay, values from two experiments, 1 mM ATP.
Where [3] appears, read: recombinant canine IRAK4 enzyme, read-out: IC50 for the inhibition of canine IRAK4.

In the case of `CC(C)(O)CCn1cc2cc(NC(=O)c3cccc(C(F)F)n3)c(C(C)(C)O)cc2n1` [Example 13, 6-(Difluoromethyl)-N-[2-(3-hydroxy-3-methylbutyl)-6-(2-hydroxypropan-2-yl)-2H-indazol-5-yl]pyridine-2-carboxamide], the results for the IC50 (in assay [1]; on canine IRAK4 (setting [2]); on canine IRAK4 (setting [3])) were 100 nM, 2.68 nM and 2.2 nM, respectively.

Consider `Cc1nc(C(=O)Nc2cc3cn(CCC(C)(C)O)nc3cc2C(C)(C)O)ccc1F` [Example 19, 5-Fluoro-N-[2-(3-hydroxy-3-methylbutyl)-6-(2-hydroxypropan-2-yl)-2H-indazol-5-yl]-6-methylpyridine-2-carboxamide], for which the IC50 stood at 100 nM in assay [1], 6.75 nM against canine IRAK4 (setting [2]) and 7.6 nM on canine IRAK4 (setting [3]).
